From US12091425B2 (AMGEN INC., priority 2016, dated 2024)
Where two headings read alike, the source gives them in different places.

Legend:
[1] = not given; remark: listed apart in the source
[2] = biological target: T1, Mcl-1/Bim interaction, recombinant human Mcl-1 (171-327) (Homo sapiens, UniProt Q07820); experiment: Cell free Mcl-1: Bim Affinity Assay (Mcl-1 HTRF); format: binding
T1 construct: made in house
Outline: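 Biotin-Bim(51-76) peptide, TR-FRET readout, overnight incubation; IC50 from duplicate competition curves, 4-parameter fit.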

[3] = system: OPM-2 human multiple myeloma cell line; experiment: Cell Viability Assay (OPM-2 10 FBS); format: cell-based; conditions: Homo sapiens, OPM-2, 16 h, OPM-2 cells, 16 h, CellTiter-Glo
Outline: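 Plated at 3000 cells/well in 10% FBS complete medium, the cells received a serial compound dilution series and incubated 16 h at 37 °C with 5% CO2. CellTiter-Glo was then added; IC50 values were fitted with a logistic 4-parameter model.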

[4] = TR-FRET, 0.1 nM Mcl-1 (171-327), 0.05 nM biotin-Bim (51-76)
[5] = cell free Mcl-1:Bim TR-FRET, recombinant human Mcl-1 (171-327)

T1 sequence (Q07820 171-327): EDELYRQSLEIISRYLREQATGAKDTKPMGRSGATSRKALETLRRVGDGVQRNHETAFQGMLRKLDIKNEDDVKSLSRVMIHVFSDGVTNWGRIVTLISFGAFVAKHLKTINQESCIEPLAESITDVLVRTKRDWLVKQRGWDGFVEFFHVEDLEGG

## C[C@@H]1CC=C[C@H](O)[C@]2(C)CC[C@H]2CN2C[C@@]3(CCCc4cc(Cl)ccc43)COc3ccc(cc32)C(=O)NS1(=O)=O
From C[C@H](C/C=C/[C@H](O)[C@]1(C)CC[C@H]1CN1C[C@@]2(CCCc3cc(Cl)ccc32)COc2ccc(C(=O)O)cc21)S(N)(=O)=O, amide bond, 15-membered ring, EDC/DMAP, DCM, 2.0 mM, 16.0 h
  ring closure, yield after HPLC: 7.1%

## N#CC[C@@H]1CC/C=C/[C@H](O)[C@@H]2CC[C@H]2CN2C[C@@]3(CCCc4cc(Cl)ccc43)COc3ccc(cc32)C(=O)NS1(=O)=O
From C=CC/C=C/[C@H](O)[C@@H]1CC[C@H]1CN1C[C@@]2(CCCc3cc(Cl)ccc32)COc2ccc(C(=O)NS(=O)(=O)[C@@H](CC#N)CCC=C)cc21, rcm bond, 16-membered ring, Hoveyda-Grubbs II (20 mol%), reduced pressure, AcOH, 2.89 mM, […]
  ring closure, yield after HPLC: 3.43%

## C=CCCC(C#N)S(=O)(=O)NC(=O)c1ccc2c(c1)N(C[C@@H]1CC[C@H]1[C@@H](O)/C=C/CCC)C[C@@]1(CCCc3cc(Cl)ccc31)CO2 (single isomer, unassigned)
The molecule shown is the open-chain precursor, rcm bond, 16-membered ring, Hoveyda-Grubbs II (20 mol%), reduced pressure, AcOH, 2.9 mM, […]
  ring closure, yield after HPLC: 2.58%

## O=C1NS(=O)(=O)[C@H]2CCC[C@@H](C=C[C@H](O)[C@@H]3CC[C@H]3CN3C[C@@]4(CCCc5cc(Cl)ccc54)COc4ccc1cc43)C2 (single isomer, unassigned)
From NS(=O)(=O)[C@H]1CCC[C@@H](/C=C/[C@H](O)[C@@H]2CC[C@H]2CN2C[C@@]3(CCCc4cc(Cl)ccc43)COc3ccc(C(=O)O)cc32)C1, amide bond, 16-membered ring, EDC/DMAP, DCM, 2.0 mM, 16.0 h
  ring closure, yield after HPLC: 4.7%

## C[C@H]1[C@@H]2/C=C/[C@H](O)[C@@H]3CC[C@H]3CN3C[C@@]4(CCCc5cc(Cl)ccc54)COc4ccc(cc43)C(=O)NS(=O)(=O)[C@@H]1CCC2 [Example 112, (1S,3′R,6′R,7′S,8′E,10′S,14′R,28′S)-6-chloro-7′-hydroxy-28′-methyl-3,4-dihydro-2H,17′H-spiro[naphthalene-1,24′-[22]oxa[15]thia[1,16]diazapentacyclo[16.7.2.1^10,14.0^3,6.0^21,26]octacosa[8,18,20,26]tetraen]-17′-one 15′,15′-dioxide]
[1]; from C[C@H]1[C@H](/C=C/[C@H](O)[C@@H]2CC[C@H]2CN2C[C@@]3(CCCc4cc(Cl)ccc43)COc3ccc(C(=O)O)cc32)CCC[C@H]1S(N)(=O)=O, amide bond, 16-membered ring, EDC/DMAP, DCM, 2.0 mM, 16.0 h
  ring closure, isolated yield: 21%
[2]; [4]
  IC50: 0.63 nM
[3]
  IC50: 172 nM

## O=C1NS(=O)(=O)CC/C=C/[C@@H](O)[C@@H]2CC[C@H]2CN2C[C@@]3(CCCc4cc(Cl)ccc43)COc3ccc1cc32 [Example 221, (1S,3′R,6′R,7′R,8′E)-6-chloro-7′-hydroxy-3,4-dihydro-2H,14′H-spiro[naphthalene-1,21′-[19]oxa[12]thia[1,13]diazatetracyclo[13.7.2.0^3,6.0^18,23]tetracosa [8,15,17,23]tetraen]-14′-one 12′,12′-dioxide]
[1]; from C=CCCS(=O)(=O)NC(=O)c1ccc2c(c1)N(C[C@@H]1CC[C@H]1[C@H](O)/C=C/CCC)C[C@@]1(CCCc3cc(Cl)ccc31)CO2, rcm bond, 15-membered ring, Hoveyda-Grubbs II (portionwise), AcOH, 5.2 mM
  ring closure, isolated yield: 48%
[2]; [4]
  IC50: 10.8 nM

## O=C1NS(=O)(=O)CCCC/C=C/[C@@H](O)[C@@H]2CC[C@H]2CN2C[C@@]3(CCCc4cc(Cl)ccc43)COc3ccc1cc32 [Example 227, (1S,3′R,6′R,7′R,8′E)-6-chloro-7′-hydroxy-3,4-dihydro-2H,16′H-spiro[naphthalene-1,23′-[21]oxa[14]thia[1,15]diazatetracyclo[15.7.2.0^3,6.0^20,25]hexacosa[8,17,19,25]tetraen]-16′-one 14′,14′-dioxide]
[1]; from C=CCCCCS(=O)(=O)NC(=O)c1ccc2c(c1)N(C[C@@H]1CC[C@H]1[C@H](O)/C=C/CCC)C[C@@]1(CCCc3cc(Cl)ccc31)CO2, rcm bond, 17-membered ring, Hoveyda-Grubbs II, AcOH, 5.2 mM
  ring closure, isolated yield: 59%
[2]; [4]
  IC50: 32.8 nM
[3]
  IC50: 21400 nM

## CC[C@@H]1CC/C=C/C[C@H](O)[C@@H]2CC[C@H]2CN2C[C@@]3(CCCc4cc(Cl)ccc43)COc3ccc(cc32)C(=O)NS1(=O)=O [Example 553, (1S,3′R,6′R,7′S,9′E,13′R)-6-chloro-13′-ethyl-7′-hydroxy-3,4-dihydro-2H,16′H-spiro[naphthalene-1,23′-[21]oxa[14]thia[1,15]diazatetracyclo[15.7.2.0^3,6.0^20,25]hexacosa[9,17,19,25]tetraen]-16′-one 14′,14′-dioxide]
[1]; from C=CCC[C@@H](CC)S(=O)(=O)NC(=O)c1ccc2c(c1)N(C[C@@H]1CC[C@H]1[C@@H](O)CC=C)C[C@@]1(CCCc3cc(Cl)ccc31)CO2, rcm bond, 17-membered ring, Hoveyda-Grubbs II (10 mol%), DCM, 1.4 mM, 45.0 °C, 6.0 h
  ring closure, isolated yield: 38%
[2]; [5]
  IC50: 4 nM

## C[C@@H]1C/C=C/[C@H](O)[C@@H]2CC[C@H]2CN2C[C@@]3(CCCc4cc(Cl)ccc43)COc3ccc(cc32)C(=O)NS1(=O)=O [Example 758, (1S,3′R,6′R,7′S,8′E,11′R)-6-chloro-7′-hydroxy-11′-methyl-3,4-dihydro-2H,14′H-spiro[naphthalene-1,21′-[19]oxa[12]thia[1,13]diazatetracyclo[13.7.2.0^3,6.0^18,23]tetracosa[8,15,17,23]tetraen]-14′-one 12′,12′-dioxide]
[1]; from C=CC[C@@H](C)S(=O)(=O)NC(=O)c1ccc2c(c1)N(C[C@@H]1CC[C@H]1[C@@H](O)C=C)C[C@@]1(CCCc3cc(Cl)ccc31)CO2, rcm bond, 15-membered ring, Hoveyda-Grubbs II, DCM, 2.65 mM, 7.0 h
  ring closure, isolated yield: 23.8%
[2]; [5]
  IC50: 0.46 nM
[3]
  IC50: 1180 nM

## C[C@@H]1CC/C=C/[C@H](O)[C@@H]2CC[C@H]2CN2C[C@@]3(CCCc4nc(Cl)ccc43)COc3ccc(cc32)C(=O)NS1(=O)=O [Example 791, (3R,6R,7S,8E,12R,22S)-2′-chloro-7-hydroxy-12-methyl-7′,8′-dihydro-6′H,15H-spiro[20-oxa-13-thia-1,14-diazatetracyclo [14.7.2.0^3,6.0^19,24]pentacosa-8,16,18,24-tetraene-22,5′-quinolin]-15-one 13,13-dioxide]
[1]; from C=CCC[C@@H](C)S(=O)(=O)NC(=O)c1ccc2c(c1)N(C[C@@H]1CC[C@H]1[C@@H](O)/C=C/CCC)C[C@@]1(CCCc3nc(Cl)ccc31)CO2, rcm bond, 16-membered ring, Hoveyda-Grubbs II, AcOH, 1.98 mM
  ring closure, isolated yield: 40%
[2]; [5]
  IC50: 6.21 nM
[3]
  IC50: 23300 nM

## CC[C@@H]1CC/C=C/[C@H](O)[C@@H]2CC[C@H]2CN2C[C@@]3(CCCc4nc(Cl)ccc43)COc3ccc(cc32)C(=O)NS1(=O)=O [Example 798, (3R,6R,7S,8E,12R,22S)-2′-chloro-12-ethyl-7-hydroxy-7′,8′-dihydro-6′H,15H-spiro[20-oxa-13-thia-1,14-diazatetracyclo[14.7.2.0^3,6.0^19,24]pentacosa-8,16,18,24-tetraene-22,5′-quinolin]-15-one 13,13-dioxide]
[1]; from C=CCC[C@@H](CC)S(=O)(=O)NC(=O)c1ccc2c(c1)N(C[C@@H]1CC[C@H]1[C@@H](O)/C=C/CCC)C[C@@]1(CCCc3nc(Cl)ccc31)CO2, rcm bond, 16-membered ring, Hoveyda-Grubbs II, AcOH, 2.04 mM
  ring closure, isolated yield: 39%
[2]; [5]
  IC50: 2.42 nM
[3]
  IC50: 9260 nM

## (1S,3′R,6′R,7′S,8′E)-6-chloro-7′-hydroxy-9′-bromo-3,4-dihydro-2H,15′H-spiro[naphthalene-1,22′-[20]oxa[13]thia[1,14]diazatetracyclo[14.7.2.0^3,6.0^19,24]pentacosa[8,16,18,24]tetraen]-15′-one 13′,13′-dioxide or (1S,3′R,6′R,7′R,8′E)-6-chloro-7′-hydroxy-9′-bromo-3,4-dihydro-2H,15′H-spiro[naphthalene-1,22′-[20]oxa[13]thia[1,14]diazatetracyclo[14.7.2.0^3,6.0^19,24]pentacosa[8,16,18,24]tetraen]-15′-one 13′,13′-dioxide
Amide bond, 16-membered ring, EDC/DMAP/TEA, DCM, 5.0 mM, […]
  ring closure, yield after HPLC: 13%

## (1S,3′R,6′R,7′S,8′E,11′S,12′R)-6-chloro-7′-hydroxy-12′-(2-methoxyethyl)-11′-methyl-3,4-dihydro-2H,15′H-spiro[naphthalene-1,22′-[20]oxa[13]thia[1,14]diazatetracyclo[14.7.2.0^3,6.0^19,24]pentacosa [8,16,18,24]tetraen]-15′-one 13′,13′-dioxide or [...] or (1S,3′R,6′R,7′S,8′E,11′R,12′R)-6-chloro-7′-hydroxy-12′-(2-methoxyethyl)-11′-methyl-3,4-dihydro-2H,15′H-spiro[naphthalene-1,22′-[20]oxa[13]thia[1,14]diazatetracyclo[14.7.2.0^3,6.0^19,24]pentacosa[8,16,18,24]tetraen]-15′-one 13′,13′-dioxide
Rcm bond, 16-membered ring, Hoveyda-Grubbs II, 1,2-dichloroethane, 3.67 mM, 50.0 °C
  ring closure, yield after HPLC: 8.2%

## (1S,3′R,6′R,7′S,8′E,12′R)-12′-(2-(tert-butylsulfonyl)ethyl)-6-chloro-7′-hydroxy-3,4-dihydro-2H,15′H-spiro[naphthalene-1,22′-[20]oxa[13]thia[1,14]diazatetracyclo[14.7.2.0^3,6.0^19,24]pentacosa[8,16,18,24]tetraen]-15′-one 13′,13′-dioxide or (1S,3′R,6′R,7′S,8′E,12′S)-12′-(2-(tert-butylsulfonyl)ethyl)-6-chloro-7′-hydroxy-3,4-dihydro-2H,15′H-spiro[naphthalene-1,22′-[20]oxa[13]thia [1,14]diazatetracyclo[14.7.2.0^3,6.0^19,24]pentacosa[8,16,18,24]tetraen]-15′-one 13′,13′-dioxide
Rcm bond, 16-membered ring, Hoveyda-Grubbs II (20 mol%), reduced pressure, AcOH, 2.9 mM, […]
  ring closure, yield after HPLC: 6.75%

## (1S,3′R,6′R,11′S)-6-chloro-11′-methyl-3,4-dihydro-2H,7′,14′H-spiro[naphthalene-1,21′-[19]oxa[12]thia[1,13]diazatetracyclo[13.7.2.0^3,6.0^18,23]tetracosa [15,17,23]triene]-7′,14′-dione 12′,12′-dioxide
Rcm bond, 15-membered ring
  ring closure, yield after HPLC: 4.8%
